This is an account of results in PubChem BioAssay AID330 (DTP/NCI, 2004).

“And” between values parts separate entries of the source, which are not always exact repeats. Equal values may be shown once. Toxic doses and inconclusive results are not listed.

The test system of the assay is P388 leukemia ip, CD2F1 mice, survival T/C. The assay can be described thus: NCI In Vivo Anticancer Drug Screen. Data for tumor model P388 Leukemia (intraperitoneal) in CD2F1 (CDF1) mice. The following applies: endpoint: median survival time, higher = longer survival. In a few lines: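 Mice carrying the transplanted tumor received test compound or vehicle. Survival was recorded in each group, and the value is the treated-group measurement divided by that of the vehicle-treated control group.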

Setting [1] is: dose: 50.0 mg/kg/injection, schedule: Q01DX005 (ip), vehicle: saline with Tween-80.
[2] abbreviates: dose: 100.0 mg/kg/injection, schedule: Q01DX005 (ip), vehicle: saline with Tween-80.
The mark [3] stands for this setting: dose: 200.0 mg/kg/injection, schedule: Q01DX005 (ip), vehicle: saline with Tween-80.
Setting [4] is: dose: 12.5 mg/kg/injection, schedule: Q01DX009 (ip), vehicle: Klucel (hydroxypropylcellulose) (HPC).
The mark [5] stands for this setting: dose: 25.0 mg/kg/injection, schedule: Q01DX009 (ip), vehicle: Klucel (hydroxypropylcellulose) (HPC).
The mark [6] stands for this setting: dose: 100.0 mg/kg/injection, schedule: Q04DX002 (ip), vehicle: saline with Tween-80.
Where [7] appears, read: dose: 200.0 mg/kg/injection, schedule: Q04DX002 (ip), vehicle: saline with Tween-80.
Where [8] appears, read: dose: 50.0 mg/kg/injection, schedule: Q01DX009 (ip), vehicle: Klucel (hydroxypropylcellulose) (HPC).
Setting [9] is: dose: 100.0 mg/kg/injection, schedule: Q01DX009 (ip), vehicle: Klucel (hydroxypropylcellulose) (HPC).
[10] abbreviates: dose: 6.25 mg/kg/injection, schedule: Q01DX009 (ip), vehicle: saline with Tween-80.
The mark [11] stands for this setting: dose: 12.5 mg/kg/injection, schedule: Q01DX009 (ip), vehicle: saline with Tween-80.
[12] abbreviates: dose: 200.0 mg/kg/injection, schedule: Q01DX009 (ip), vehicle: saline.

As to `Cc1cc(C)c(-c2c(Br)c(OC(=O)CO[C@@H]3C[C@H](C)CC[C@H]3C(C)C)c(-c3c(C)cc(C)c(Br)c3C)c(Br)c2OC(=O)CO[C@@H]2C[C@H](C)CC[C@H]2C(C)C)c(C)c1Br`, the T/C reads like this: under setting [1], 107 % of control; under setting [2], 100 % of control; under setting [3], 88 % of control.

For the compound `Cn1nnn(C)c1=NC#N`, the T/C is 100 % of control (dose: 100.0 mg/kg/injection, schedule: Q01DX001 (ip), vehicle: saline); 107 % of control (dose: 200.0 mg/kg/injection, schedule: Q01DX001 (ip), vehicle: saline); 100 % of control (dose: 400.0 mg/kg/injection, schedule: Q01DX001 (ip), vehicle: saline).

As to `N#C/C(=C/c1ccco1)c1ccccc1`, the T/C under setting [4] was 95 % of control and the T/C under setting [5] was 88 % of control.

In the case of `COc1ccc(/C=N\N=C(/[O-])c2ccc(Cl)cc2)cc1.COc1ccc(/C=N\N=C(/[O-])c2ccc(Cl)cc2)cc1.[Co+2].[OH3+].[OH3+]`, the T/C reads like this: under setting [6], 93 % of control; under setting [7], 102 % of control; (dose: 400.0 mg/kg/injection, schedule: Q04DX002 (ip), vehicle: saline with Tween-80) 103 % of control.

As for `O=C(O)c1ccc(Cl)c(Cl)c1`, the T/C was 101 % of control under setting [4], 110 % of control under setting [5], 99 % of control under setting [8] and 108 % of control under setting [9].

For the compound `CSCCC([NH-])C(=O)O.CSCCC([NH-])C(=O)O.[Zn+2]` (centres undefined), the T/C is 110 % of control under setting [1] and 111 % of control under setting [2].

With `FC(F)(c1nc2ccccc2[nH]1)C(F)(F)C(F)(F)c1nc2ccccc2[nH]1`, the T/C is, setting by setting: under setting [1], 95 % of control; under setting [2], 89 % of control; under setting [3], 88 % of control.

Consider `CCCCCCCCCCCCNC(=S)C(=S)NCCCCCCCCCCCC`, for which the T/C under setting [5] was 98 % of control, the T/C under setting [8] was 95 % of control and the T/C under setting [9] is 94 % of control.

For `COc1cc(NS(C)(=O)=O)ccc1Nc1c2ccc([N+](=O)[O-])cc2nc2c(C)c(C)ccc12`, the T/C runs as follows: (dose: 0.04 mg/kg/injection, schedule: Q01DX009 (ip), vehicle: saline with Tween-80) 120 % of control; (dose: 0.07 mg/kg/injection, schedule: Q01DX009 (ip), vehicle: saline with Tween-80) 120 % of control; (dose: 1.13 mg/kg/injection, schedule: Q01DX009 (ip), vehicle: saline with Tween-80) 157 % of control; under setting [10], 254 % of control; (dose: 8.8 mg/kg/injection, schedule: Q04DX003 (ip), vehicle: saline with Tween-80) 218 % of control; under setting [11], 291 % of control. In addition, the T/C by setting is: (dose: 13.2 mg/kg/injection, schedule: Q04DX003 (ip), vehicle: saline with Tween-80) 209 % of control; (dose: 20.0 mg/kg/injection, schedule: Q04DX003 (ip), vehicle: saline with Tween-80) 231 % of control; (dose: 30.0 mg/kg/injection, schedule: Q04DX003 (ip), vehicle: saline with Tween-80) 263 % of control.

For the compound `CCCOP(=S)(N1CC1(C)C)N1CC1(C)C` (centres undefined), the T/C runs as follows: under setting [11], 104 % of control; (dose: 25.0 mg/kg/injection, schedule: Q01DX009 (ip), vehicle: saline with Tween-80) 113 % of control; (dose: 150.0 mg/kg/injection, schedule: Q01DX009 (ip), vehicle: saline with Tween-80) 155 % of control.

Regarding `NC(CC(=O)O)C(=O)O` (centres undefined), the T/C is 103 % of control and 105 % of control under setting [8]; 105 % of control and 91 % of control under setting [9]; 91 % of control (dose: 200.0 mg/kg/injection, schedule: Q01DX009 (ip), vehicle: Klucel (hydroxypropylcellulose) (HPC)); 100 % of control under setting [12]; 100 % of control (dose: 400.0 mg/kg/injection, schedule: Q01DX009 (ip), vehicle: saline); 90 % of control (dose: 800.0 mg/kg/injection, schedule: Q01DX009 (ip), vehicle: saline).

In the case of `O=C1NC(N(CCCl)CCCl)=NC1(c1ccccc1)c1ccccc1`, the T/C is, setting by setting: (dose: 12.5 mg/kg/injection, schedule: Q04DX002 (ip), vehicle: saline with Tween-80) 97 % of control; (dose: 25.0 mg/kg/injection, schedule: Q04DX002 (ip), vehicle: saline with Tween-80) 94 % of control; (dose: 50.0 mg/kg/injection, schedule: Q04DX002 (ip), vehicle: saline with Tween-80) 94 % of control; under setting [6], 106 % of control; under setting [7], 96 % of control.

With `CCCOC(=O)Nc1ccc2c(c1)c1c3[nH]c(=O)c4cccn4c3ccc1n2CC`, the T/C (dose: 100.0 mg/kg/injection, schedule: Q01DX001 (ip), vehicle: saline with Tween-80) was 94 % of control and the T/C (dose: 200.0 mg/kg/injection, schedule: Q01DX001 (ip), vehicle: saline with Tween-80) was 94 % of control.

For `O=C1c2cccc3cc([N+](=O)[O-])cc(c23)C(=O)N1CCNCCNCCNCCN1C(=O)c2cccc3cc([N+](=O)[O-])cc(c23)C1=O`, the T/C runs as follows: (dose: 5.0 mg/kg/injection, schedule: Q04DX002 (ip), vehicle: saline with Tween-80) 107 % of control and 124 % of control; (dose: 10.0 mg/kg/injection, schedule: Q04DX002 (ip), vehicle: saline with Tween-80) 122 % of control; (dose: 80.0 mg/kg/injection, schedule: Q04DX002 (ip), vehicle: saline with Tween-80) 122 % of control.

For `C/C1=C\C(=O)OCC23CC(O)C4(C)OC4C2OC2CC(OC(=O)/C=C/C=C/C(C(C)O)OCC1O)C3(C)C21CO1` (centres undefined), the T/C is 120 % of control (dose: 1.25 mg/kg/injection, schedule: Q01DX005 (ip), vehicle: saline + alcohol); 120 % of control (dose: 2.5 mg/kg/injection, schedule: Q01DX005 (ip), vehicle: saline + alcohol); 155 % of control (dose: 5.0 mg/kg/injection, schedule: Q01DX005 (ip), vehicle: saline + alcohol); 172 % of control (dose: 10.0 mg/kg/injection, schedule: Q01DX005 (ip), vehicle: saline + alcohol).

In the case of `CC(c1ccc(Cl)cc1)N(CCN(C)C)c1ccccn1` (centres undefined), the T/C is 103 % of control (dose: 15.0 mg/kg/injection, schedule: Q01DX005 (ip), vehicle: Klucel (hydroxypropylcellulose) (HPC)); 104 % of control (dose: 30.0 mg/kg/injection, schedule: Q01DX005 (ip), vehicle: Klucel (hydroxypropylcellulose) (HPC)); 111 % of control and 95 % of control (dose: 60.0 mg/kg/injection, schedule: Q01DX005 (ip), vehicle: Klucel (hydroxypropylcellulose) (HPC)).

`CC1(C)OCC(C2NC2C2COC(C)(C)O2)O1` (centres undefined): the T/C runs as follows: (dose: 50.0 mg/kg/injection, schedule: Q01DX009 (ip), vehicle: saline) 108 % of control; (dose: 100.0 mg/kg/injection, schedule: Q01DX009 (ip), vehicle: saline) 110 % of control; under setting [12], 104 % of control.

Take `COC(=O)/C=C\C1(CCC(=O)OC)N=C(c2ccccc2)OC1=O` (centres undefined): the T/C runs as follows: under setting [1], 101 % of control; under setting [2], 92 % of control; under setting [3], 96 % of control.

Regarding `CCCCOc1ccc(C(=O)SCCCN=C(N)N)cc1`, the T/C runs as follows: (dose: 12.5 mg/kg/injection, schedule: Q01DX005 (ip), vehicle: saline) 98 % of control; (dose: 25.0 mg/kg/injection, schedule: Q01DX005 (ip), vehicle: saline) 100 % of control; (dose: 50.0 mg/kg/injection, schedule: Q01DX005 (ip), vehicle: saline) 96 % of control and 98 % of control and 105 % of control; (dose: 100.0 mg/kg/injection, schedule: Q01DX005 (ip), vehicle: saline) 97 % of control.

`Cc1ccc2nc(/N=C/c3ccc(N(C)C)cc3)sc2c1`: the T/C is, setting by setting: (dose: 100.0 mg/kg/injection, schedule: Q04DX003 (ip), vehicle: saline) 109 % of control; (dose: 200.0 mg/kg/injection, schedule: Q04DX003 (ip), vehicle: saline) 107 % of control; (dose: 400.0 mg/kg/injection, schedule: Q04DX003 (ip), vehicle: saline) 101 % of control.

Consider `NC(CSP(=O)(O)O)=NCC12CC3CC(CC(C3)C1)C2`, for which the T/C is 100 % of control (dose: 3.12 mg/kg/injection, schedule: Q01DX009 (ip), vehicle: saline with Tween-80); 104 % of control under setting [10]; 110 % of control under setting [11].

Consider `CC/C(=N/OC)C(=O)OC`, for which the T/C under setting [1] is 93 % of control, the T/C under setting [2] was 99 % of control and the T/C under setting [3] was 100 % of control.

With `O=Cc1ccc2c(c1)C(O)NC(=O)O2` (centres undefined), the T/C runs as follows: under setting [1], 100 % of control; under setting [2], 101 % of control.
